Test results from patent US9738655B2, “Tetrahydroisoquinolines containing substituted azoles as factor XIa inhibitors” (BRISTOL-MYERS SQUIBB COMPANY, priority 2013, dated 2017).
Where a name gives a salt, the structure may show the parent alone. Read-outs that look alike come from different tables or passages of the source.

Key:
[1] = biological target: purified human Factor XIa (Homo sapiens (Human), UniProt P03951); assay: Factor XIa enzyme inhibition assay (chromogenic substrate S-2366)
Protocol: The effectiveness of compounds of the present invention as inhibitors of the coagulation Factors XIa, VIIa, IXa, Xa, XIIa, plasma kallikrein or thrombin, can be determined using a relevant purified serine protease, respectively, and an appropriate synthetic substrate. The rate of hydrolysis of the chromogenic or fluorogenic substrate by the relevant serine protease was measured both in the absence and presence of compounds of the present invention. […] A decrease in the rate of absorbance or fluorescence change in the presence of inhibitor is indicative of enzyme inhibition. […] The results of this assay are expressed as the inhibitory constant, Ki.
Values of Ki were determined by allowing the protease to react with the substrate in the presence of the inhibitor.

[2] = biological target: purified human plasma kallikrein (Homo sapiens (Human), UniProt P03952); assay: Plasma kallikrein enzyme inhibition assay (chromogenic substrate S-2302); assay type: biochemical
[3] = read-out: Factor XIa Ki, measured at 25° C.
[4] = measured at 25° C. (no asterisk)
[5] = measured at 25° C. (no asterisk), TFA salt
[6] = read-out: Factor XIa Ki, measured at 25° C., TFA salt

purified human plasma kallikrein, sequence (P03952 391-638): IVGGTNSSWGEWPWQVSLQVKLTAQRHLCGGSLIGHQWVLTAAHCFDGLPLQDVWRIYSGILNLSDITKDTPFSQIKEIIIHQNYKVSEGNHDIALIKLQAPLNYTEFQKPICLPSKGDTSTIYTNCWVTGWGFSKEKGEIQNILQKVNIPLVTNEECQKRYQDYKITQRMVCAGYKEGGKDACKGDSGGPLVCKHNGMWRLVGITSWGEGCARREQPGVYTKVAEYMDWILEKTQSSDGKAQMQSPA
purified human plasma kallikrein, sequence (P03952 20-390 partner): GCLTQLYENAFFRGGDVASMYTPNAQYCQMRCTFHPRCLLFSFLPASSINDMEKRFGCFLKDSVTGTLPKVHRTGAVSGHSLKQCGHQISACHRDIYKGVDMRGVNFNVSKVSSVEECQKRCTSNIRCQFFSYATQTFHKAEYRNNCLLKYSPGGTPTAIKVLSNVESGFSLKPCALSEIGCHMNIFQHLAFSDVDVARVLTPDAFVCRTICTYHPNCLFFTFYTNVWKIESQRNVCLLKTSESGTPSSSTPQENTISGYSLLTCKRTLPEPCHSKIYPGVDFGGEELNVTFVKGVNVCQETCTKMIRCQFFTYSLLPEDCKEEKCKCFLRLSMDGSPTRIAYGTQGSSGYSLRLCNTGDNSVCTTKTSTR
purified human Factor XIa, sequence (P03951 388-625): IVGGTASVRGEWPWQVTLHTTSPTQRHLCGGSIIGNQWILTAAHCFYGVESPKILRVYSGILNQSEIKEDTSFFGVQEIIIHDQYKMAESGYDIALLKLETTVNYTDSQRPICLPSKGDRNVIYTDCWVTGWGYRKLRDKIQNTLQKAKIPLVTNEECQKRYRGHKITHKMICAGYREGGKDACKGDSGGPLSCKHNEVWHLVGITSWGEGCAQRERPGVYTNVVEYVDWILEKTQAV
purified human Factor XIa, sequence (P03951 19-387 partner): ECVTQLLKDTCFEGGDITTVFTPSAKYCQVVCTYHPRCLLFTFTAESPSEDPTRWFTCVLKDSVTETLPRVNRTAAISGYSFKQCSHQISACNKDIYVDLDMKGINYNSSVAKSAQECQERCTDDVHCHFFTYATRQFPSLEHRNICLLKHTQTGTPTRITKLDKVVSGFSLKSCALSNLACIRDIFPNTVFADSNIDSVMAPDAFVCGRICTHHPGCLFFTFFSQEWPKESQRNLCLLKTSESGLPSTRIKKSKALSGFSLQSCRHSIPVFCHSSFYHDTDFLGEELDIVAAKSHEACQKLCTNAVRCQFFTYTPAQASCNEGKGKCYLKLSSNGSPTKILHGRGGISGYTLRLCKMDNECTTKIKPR

Row | SMILES | Ki [1, 3] | Ki [2, 4] | Ki [1] | Ki ([2]; measured at 37° C. (*)) | further results
1 | CN(C)C(=O)C1CCN(c2cccc3c2CCN(C(=O)c2cn(-c4cccc(Cl)c4F)nn2)[C@@H]3C(=O)Nc2ccc(C(=O)O)cc2)CC1 (single isomer, unassigned) [Example 58, TFA salt] | < 5 nM | 3.24 nM | – | – | –
2 | CN(C)C(=O)C1CCN(c2cccc3c2CCN(C(=O)c2cnn(-c4cccc(Cl)c4F)c2)[C@H]3C(=O)Nc2ccc(C(=O)O)cc2)CC1 (single isomer, unassigned) [Example 60, TFA salt] | 47.8 nM | 698 nM | – | – | –
3 | CN(C)C(=O)C1CCN(c2cccc3c2CCN(C(=O)c2cnn(-c4cccc(Cl)c4F)c2)[C@@H]3C(=O)Nc2ccc(C(=O)O)cc2)CC1 (single isomer, unassigned) [Example 61, TFA salt] | < 5 nM | 5.89 nM | – | – | –
4 | CN(C)C(=O)C1CCN(c2cccc3c2CCN(C(=O)c2cn(-c4cccc(Cl)c4F)cn2)[C@H]3C(=O)Nc2ccc(C(=O)O)cc2)CC1 (single isomer, unassigned) [Example 62, TFA salt] | 74.6 nM | 399 nM | – | – | –
5 | CN(C)C(=O)C1CCN(c2cccc3c2CCN(C(=O)c2cn(-c4cccc(Cl)c4F)cn2)[C@@H]3C(=O)Nc2ccc(C(=O)O)cc2)CC1 (single isomer, unassigned) [Example 63, TFA salt] | < 5 nM | 2.71 nM | – | – | –
6 | O=C(O)c1ccc(NC(=O)C2c3cccc(N4CCC(N5CCCC5)CC4)c3CCN2C(=O)C2CC(c3cccc(Cl)c3)=NO2)cc1 (single isomer, unassigned) [Example 203, 4-(2-(3-(3-chlorophenyl)-4,5-dihydroisoxazole-5-carbonyl)-5-(4-(pyrrolidin-1-yl)piperidin-1-yl)-1,2,3,4-tetrahydroisoquinoline-1-carboxamido)benzoic acid, 2 TFA salt] | – | 1.29 nM | < 5 nM | – | –
7 | O=C(O)c1ccc(NC(=O)C2c3cccc(N4CCC(N5CCCC5)CC4)c3CCN2C(=O)C2CC(c3cccc(Cl)c3)=NO2)cc1 (single isomer, unassigned) [Example 204, 4-(2-(3-(3-chlorophenyl)-4,5-dihydroisoxazole-5-carbonyl)-5-(4-(pyrrolidin-1-yl)piperidin-1-yl)-1,2,3,4-tetrahydroisoquinoline-1-carboxamido)benzoic acid, 2 TFA salt] | < 5 nM | 11 nM | – | – | –
8 | COC1CCN(c2cccc3c2CCN(C(=O)[C@H]2CC(c4cccc(Cl)c4F)=NO2)[C@@H]3C(=O)Nc2ccccc2F)CC1 (single isomer, unassigned) [Example 235, TFA salt] | – | – | 23.2 nM | 478 nM | –
9 | COC1CCN(c2cccc3c2CCN(C(=O)[C@H]2CC(c4cccc(Cl)c4F)=NO2)[C@H]3C(=O)Nc2ccccc2F)CC1 (single isomer, unassigned) [Example 236, TFA salt] | – | – | 454 nM | > 4340 nM | –
10 | COC1CCN(c2cccc3c2CCN(C(=O)[C@H]2CC(c4cccc(Cl)c4F)=NO2)[C@@H]3C(=O)Nc2cccnc2)CC1 (single isomer, unassigned) [Example 241, TFA salt] | – | – | 8.78 nM | 66.7 nM | –
11 | COC1CCN(c2cccc3c2CCN(C(=O)[C@H]2CC(c4cccc(Cl)c4F)=NO2)[C@H]3C(=O)Nc2cccnc2)CC1 (single isomer, unassigned) [Example 242, TFA salt] | – | – | 188 nM | 1230 nM | –
12 | CN1CCN(c2cccc3c2CCN(C(=O)C2CC(c4cccc(Cl)c4F)=NO2)C3C(=O)Nc2ccc(C(=O)O)cc2)CC1=O (single isomer, unassigned) [Example 280, 4-(2-(3-(3-chloro-2-fluorophenyl)-4,5-dihydroisoxazole-5-carbonyl)-5-(4-methyl-3-oxopiperazin-1-yl)-1,2,3,4-tetrahydroisoquinoline-1-carboxamido)benzoic acid, TFA salt] | – | – | – | – | Ki [1, 6]: 36.5 nM; Ki [2, 5]: 283 nM
13 | CN1CCN(c2cccc3c2CCN(C(=O)C2CC(c4cccc(Cl)c4F)=NO2)C3C(=O)Nc2ccc(C(=O)O)cc2)CC1=O (single isomer, unassigned) [Example 281, 4-(2-(3-(3-chloro-2-fluorophenyl)-4,5-dihydroisoxazole-5-carbonyl)-5-(4-methyl-3-oxopiperazin-1-yl)-1,2,3,4-tetrahydroisoquinoline-1-carboxamido)benzoic acid, TFA] | – | – | – | – | Ki ([1]; read-out: Factor XIa Ki, measured at 25° C., TFA): 12.8 nM; Ki ([2]; measured at 25° C. (no asterisk), TFA): 79 nM
14 | CN1CCN(c2cccc3c2CCN(C(=O)C2CC(c4cccc(Cl)c4F)=NO2)C3C(=O)Nc2ccc(C(=O)O)cc2)CC1=O (single isomer, unassigned) [Example 282, 4-(2-(3-(3-chloro-2-fluorophenyl)-4,5-dihydroisoxazole-5-carbonyl)-5-(4-methyl-3-oxopiperazin-1-yl)-1,2,3,4-tetrahydroisoquinoline-1-carboxamido)benzoic acid, TFA salt] | – | – | – | – | Ki [1, 6]: < 5 nM; Ki [2, 5]: 1.87 nM
15 | CN1CCN(c2cccc3c2CCN(C(=O)C2CC(c4cccc(Cl)c4F)=NO2)C3C(=O)Nc2ccc(C(=O)O)cc2)CC1=O (single isomer, unassigned) [Example 283, 4-(2-(3-(3-chloro-2-fluorophenyl)-4,5-dihydroisoxazole-5-carbonyl)-5-(4-methyl-3-oxopiperazin-1-yl)-1,2,3,4-tetrahydroisoquinoline-1-carboxamido)benzoic acid, TFA salt] | – | – | – | – | Ki [1, 6]: 8.27 nM; Ki [2, 5]: 75.3 nM
16 | O=C(NC12CCC(C(=O)O)(CC1)CC2)[C@@H]1c2cccc(-c3cncnc3)c2CCN1C(=O)c1cn(-c2cccc(Cl)c2F)nn1 (single isomer, unassigned; enantiomer a) [Example 144, 4-(2-{[1-(3-Chloro-2-fluorophenyl)-1H-1,2,3-triazol-4-yl]carbonyl}-5-(pyrimidin-5-yl)-1,2,3,4-tetrahydroisoquinoline-1-amido)bicyclo[2.2.2]octane-1-carboxylic acid, 1 TFA (enantiomer A)] | 3030 nM | – | – | 11600 nM | –
17 | O=C(NC12CCC(C(=O)O)(CC1)CC2)[C@H]1c2cccc(-c3cncnc3)c2CCN1C(=O)c1cn(-c2cccc(Cl)c2F)nn1 (single isomer, unassigned; enantiomer b) [Example 145, 4-(2-{[1-(3-Chloro-2-fluorophenyl)-1H-1,2,3-triazol-4-yl]carbonyl}-5-(pyrimidin-5-yl)-1,2,3,4-tetrahydroisoquinoline-1-amido)bicyclo[2.2.2]octane-1-carboxylic acid, 1 TFA (enantiomer B)] | 7.87 nM | – | – | 252 nM | –
18 | O=C(Nc1ccc2ncccc2c1)[C@H]1c2cccc(-c3cncnc3)c2CCN1C(=O)c1cn(-c2cccc(Cl)c2F)nn1 (stereo in doubt) [Example 125, 2-(1-(3-Chloro-2-fluorophenyl)-1H-1,2,3-triazole-4-carbonyl)-5-(pyrimidin-5-yl)-N-(quinolin-6-yl)-1,2,3,4-tetrahydroisoquinoline-1-carboxamide, TFA salt] | 9.62 nM | – | – | 54.1 nM | –

Continued, in another order:

Row | Ki [1, 3] | Ki [2, 4] | Ki [1] | Ki ([2]; measured at 37° C. (*)) | SMILES | further results
19 | – | 30.9 nM | < 5 nM | – | O=C(O)c1ccc(NC(=O)[C@@H]2c3cccc(N4CCC(N5CCCC5=O)CC4)c3CCN2C(=O)[C@H]2CC(c3cccc(Cl)c3F)=NO2)cc1 (single isomer, unassigned) [Example 207, TFA salt] | –
20 | < 5 nM | 447 nM | – | – | O=C(O)c1ccc(NC(=O)C2c3cccc(N4CCC(N5CCCC5=O)CC4)c3CCN2C(=O)[C@H]2CC(c3cccc(Cl)c3F)=NO2)cc1 (single isomer, unassigned) [Example 208, TFA salt] | –
21 | – | 0.36 nM | < 5 nM | – | CN1CCN(c2cccc3c2CCN(C(=O)C2CC(c4cccc(Cl)c4)=NO2)C3C(=O)Nc2ccc(C(=O)O)cc2)CC1 (single isomer, unassigned) [Example 216, 4-(2-(3-(3-chlorophenyl)-4,5-dihydroisoxazole-5-carbonyl)-5-(4-methylpiperazin-1-yl)-1,2,3,4-tetrahydroisoquinoline-1-carboxamido)benzoic acid, 2 TFA salt] | –
22 | – | – | 15.3 nM | 130 nM | COC1CCN(c2cccc3c2CCN(C(=O)[C@H]2CC(c4cccc(Cl)c4F)=NO2)[C@@H]3C(=O)Nc2cccc(F)c2)CC1 (single isomer, unassigned) [Example 237, TFA salt] | –
23 | – | – | 635 nM | > 4340 nM | COC1CCN(c2cccc3c2CCN(C(=O)[C@H]2CC(c4cccc(Cl)c4F)=NO2)[C@H]3C(=O)Nc2cccc(F)c2)CC1 (single isomer, unassigned) [Example 238, TFA salt] | –
24 | – | – | < 5 nM | 37.6 nM | COC1CCN(c2cccc3c2CCN(C(=O)[C@H]2CC(c4cccc(Cl)c4F)=NO2)[C@@H]3C(=O)Nc2ccc(C(=O)O)cc2F)CC1 (single isomer, unassigned) [Example 243, TFA salt] | –
25 | – | – | 38.7 nM | 635 nM | COC1CCN(c2cccc3c2CCN(C(=O)[C@H]2CC(c4cccc(Cl)c4F)=NO2)[C@H]3C(=O)Nc2ccc(C(=O)O)cc2F)CC1 (single isomer, unassigned) [Example 244, TFA salt] | –
26 | < 5 nM | – | – | – | CN(C)C(=O)C1CCN(c2cccc3c2CCN(C(=O)C2CC(c4cccc(Cl)c4F)=NO2)C3C(=O)Nc2ccc(C(=O)O)cc2)CC1 (single isomer, unassigned) [Example 278, 4-(2-(3-(3-chloro-2-fluorophenyl)-4,5-dihydroisoxazole-5-carbonyl)-5-(4-(dimethylcarbamoyl)piperidin-1-yl)-1,2,3,4-tetrahydroisoquinoline-1-carboxamido)benzoic acid, TFA salt] | Ki [2, 5]: 1.98 nM
27 | < 5 nM | – | – | – | CN(C)C(=O)C1CCN(c2cccc3c2CCN(C(=O)C2CC(c4cccc(Cl)c4F)=NO2)C3C(=O)Nc2ccc(C(=O)O)cc2)CC1 (single isomer, unassigned) [Example 279, 4-(2-(3-(3-chloro-2-fluoropheny)-4,5-dihydroisoxazole-5-carbonyl)-5-(4-(dimethylcarbamoyl)piperidin-1-yl)-1,2,3,4-tetrahydroisoquinoline-1-carboxamido)benzoic acid, TFA salt] | Ki [2, 5]: 30.8 nM
